Reference: the RepoRT retention time repository (doi:10.1002/minf.201400016)

Assay: RP, Waters ACQUITY UPLC HSS T3, 150 × 2.1 mm, 1.7 µm, 30 °C, 0.4 mL/min, estimated dead time 0.83 min; A: water + 0.2% formic acid; B: 2% water + 98% acetonitrile + 0.2% formic acid; gradient (min/%B) 0/0 2.5/0 7.5/10 10/100 12/100 18/0 25/0
Conditions: stereoisomer not certain

Q: For `Nc1ccnc(=O)[nH]1` [cytosine], which LC retention time is on record?
A: The LC retention time was 1.62 min.

Q: With `CCCCCCCCCCCCCCCC[C@@H](O)C(=O)O` [(R)-2-hydroxystearic acid] as the molecule, how does the LC retention time read?
A: The LC retention time was 12.4 min.

Q: Which LC retention time does the source give for `O=C(O)Cn1ccc2ccccc21` [1H-indole-1-acetic acid] here?
A: Its LC retention time is 9.71 min.

Q: Which LC retention time does the source give for `C=C1C(=O)OC2C1CCC(=C)C1CCC(=C)C12` (configuration not stated) [dehydrocostus lactone] here?
A: The LC retention time was 10.9 min.

Q: With `NC(CCCC(=O)O)C(=O)O` (configuration not stated) [2-aminoadipic acid] as the molecule, how does the LC retention time read?
A: Its LC retention time is 1.73 min.

Q: For `Nc1cccc(C(=O)O)c1` [3-aminobenzoic acid], which LC retention time is on record?
A: The LC retention time was 5.54 min.

Q: With `OCC1OC(OCC2OC(O)C(O)C(O)C2O)C(O)C(O)C1O` (configuration not stated) [gentiobiose] as the molecule, how does the LC retention time read?
A: The LC retention time was 1.73 min.

Q: With `O=Cc1ccc(O)cc1` [4-hydroxybenzaldehyde] as the molecule, how does the LC retention time read?
A: Its LC retention time is 9.4 min.

Q: With `O=C(O)c1cccc(O)c1` [3-hydroxybenzoic acid] as the molecule, how does the LC retention time read?
A: The LC retention time was 9.31 min.

Q: For `CCC=CCC1C(=O)CCC1CC(=O)OC` (configuration not stated) [methyl jasmonate], which LC retention time is on record?
A: The LC retention time was 10.6 min.

Q: For `CC(=CCNc1ncnc2c1ncn2C1OC(CO)C(O)C1O)CO` (stereo not drawn) [9-ribosyl-trans-zeatin], which LC retention time is on record?
A: Its LC retention time is 8.91 min.

Q: For `NC(=O)NCCCC(N)C(=O)O` (configuration not stated) [citrulline], which LC retention time is on record?
A: Its LC retention time is 1.55 min.

Q: For `COc1ccc2ncccc2c1` [6-methoxyquinoline], which LC retention time is on record?
A: The LC retention time was 8.57 min.

Q: Which LC retention time does the source give for `CC(C)CC(=O)C(=O)O` [4-methyl-2-oxopentanoic acid] here?
A: Its LC retention time is 9.39 min.

Q: With `O=C[C@@H](O)[C@H](O)[C@H](O)[C@H](O)CO` [D-altrose] as the molecule, how does the LC retention time read?
A: The LC retention time was 1.55 min.

Q: With `NC(=O)c1cccnc1` [nicotinamide] as the molecule, how does the LC retention time read?
A: Its LC retention time is 3.33 min.

Q: With `c1ccc2[nH]ccc2c1` [1H-indole] as the molecule, how does the LC retention time read?
A: The LC retention time was 10.2 min.

Q: For `O=c1ccc2cc(OC3OC(CO)C(O)C(O)C3O)c(O)cc2o1` (configuration not stated) [esculin hydrate], which LC retention time is on record?
A: Its LC retention time is 8.95 min.

Q: Which LC retention time does the source give for `O=c1cc(-c2ccc(O)cc2)oc2cc(O)cc(O)c12` [apigenin] here?
A: Its LC retention time is 9.92 min.

Q: With `CC(=CCNc1ncnc2nc[nH]c12)CO` [trans-zeatin] as the molecule, how does the LC retention time read?
A: Its LC retention time is 7.57 min.

Q: For `Cc1cc(Cl)ccc1OCC(=O)O` [(4-chloro-2-methylphenoxy)acetic acid], which LC retention time is on record?
A: The LC retention time was 10.3 min.

Q: Which LC retention time does the source give for `O=C(O)C1CCCN1` (configuration not stated) [proline] here?
A: Its LC retention time is 1.73 min.

Q: With `COc1cc(C(=O)O)ccc1O` [vanillic acid] as the molecule, how does the LC retention time read?
A: The LC retention time was 9.27 min.

Q: Which LC retention time does the source give for `O=C(O)CCCCC(=O)O` [adipic acid] here?
A: Its LC retention time is 8.14 min.

Q: Which LC retention time does the source give for `C[N+](C)(C)CC(=O)[O-]` [glycine betaine] here?
A: The LC retention time was 1.55 min.

Q: For `O=c1c(O)c(-c2ccc(O)c(O)c2)oc2cc(O)cc(O)c12` [quercetin], which LC retention time is on record?
A: Its LC retention time is 9.79 min.

Q: Which LC retention time does the source give for `O=C(O)C=Cc1cccc(O)c1` [3-coumaric acid] here?
A: Its LC retention time is 9.54 min.

Q: Which LC retention time does the source give for `CCC(C)C(=O)C(=O)O` (configuration not stated) [3-methyl-2-oxovaleric acid] here?
A: Its LC retention time is 9.23 min.

Q: With `NCCCCCCCCN` [1-8-diaminooctane] as the molecule, how does the LC retention time read?
A: Its LC retention time is 1.74 min.

Q: Which LC retention time does the source give for `Cn1cc(CC(N)C(=O)O)c2ccccc21` (configuration not stated) [1-methyltryptophan] here?
A: The LC retention time was 9.17 min.

Q: With `Cc1cc(O)c2c(c1)C(=O)c1cc(O)cc(O)c1C2=O` [emodin] as the molecule, how does the LC retention time read?
A: The LC retention time was 10.7 min.

Q: For `O=C(COP(=O)(O)O)[C@@H](O)[C@H](O)[C@H](O)CO` [D-fructose 1-phosphate], which LC retention time is on record?
A: Its LC retention time is 1.49 min.

Q: For `CC(O)(CC(=O)O)C(=O)O` (configuration not stated) [citramalic acid], which LC retention time is on record?
A: The LC retention time was 5.17 min.

Q: Which LC retention time does the source give for `O=c1c(O)c(-c2ccc(O)cc2)oc2cc(O)cc(O)c12` [kaempferol] here?
A: The LC retention time was 9.98 min.

Q: For `NC(=O)NC1NC(=O)NC1=O` (configuration not stated) [allantoin], which LC retention time is on record?
A: Its LC retention time is 1.63 min.

Q: Which LC retention time does the source give for `CSC[C@H]1O[C@@H](n2cnc3c(N)ncnc32)[C@H](O)[C@@H]1O` [5'-S-methyl-5'-thioadenosine] here?
A: The LC retention time was 8.32 min.

Q: For `Oc1cccc2cccnc12` [quinolin-8-ol], which LC retention time is on record?
A: The LC retention time was 7.14 min.

Q: For `Cn1c[n+](C2OC(CO)C(O)C2O)c2nc(N)[nH]c(=O)c21` (configuration not stated) [7-methylguanosine], which LC retention time is on record?
A: Its LC retention time is 5.75 min.

Q: With `NCCSCC(N)C(=O)O` [L-thialysine] as the molecule, how does the LC retention time read?
A: The LC retention time was 1.26 min.

Q: Which LC retention time does the source give for `NCCCC[C@H](N)C(=O)O` [L-lysine] here?
A: The LC retention time was 1.23 min.

Q: With `COc1cc(C=O)ccc1O` [vanillin] as the molecule, how does the LC retention time read?
A: The LC retention time was 9.53 min.

Q: With `C[n+]1cccc(C(=O)[O-])c1` [N-methylnicotinate] as the molecule, how does the LC retention time read?
A: The LC retention time was 1.73 min.
